Experimental data as given in article PMC2709206 (The Journal of neuroscience : the official journal of the …, 2008).
Values joined by “and” are separate entries in the source; they are usually repeats but may differ in a detail not shown here. Identical values can stand only once. Like-named read-outs stand apart in the source and are kept apart here.

How the values were obtained:
[1] = system: DRG neurons from trpa1-/- mice; assay: Calcium imaging of DRG neurons from trpa1-/- mice; format: cell-based; conditions: trpa1-/- mouse DRG neurons; percentage of response to 50 mM KCl
mouse TRPA1 [2] = biological target: T1, mouse TRPA1 (Mus musculus, UniProt Q8BLA8); assay: Voltage-clamp electrophysiology of TRPA1 CHO cells; format: cell-based; conditions: for membrane current in TRPA1 CHO cells: whole-cell, holding potential -60 mV
[3] = system: DRG neurons from trpa1+/+ mice; assay: Calcium imaging of DRG neurons from trpa1+/+ mice; format: cell-based; conditions: trpa1+/+ mouse DRG neurons; percentage of response to 50 mM KCl
rat DRG neurons [4] = assay: Calcium imaging of rat DRG neurons; format: cell-based; conditions: for capsaicin-sensitive DRG neurons that responded: 4-HNE 30 μM, 4-ONE 3 μM
wild-type mice = assay: Nocifensive/pain behaviour after intraplantar injection, wild-type mice; format: in vivo, mouse; conditions: intraplantar 2.2 μmol H2O2 or 32 nmol 15d-PGJ2 in 25 μl, 3 min
untransfected CHO cells = assay: Responses; format: cell-based, Chinese hamster; conditions: data not shown
trpa1-/- mice = assay: Nocifensive/pain behaviour after intraplantar injection, trpa1-/- mice; format: in vivo, mouse; conditions: intraplantar 2.2 μmol H2O2 or 32 nmol 15d-PGJ2 in 25 μl, 3 min, compared with wild-type
human TRPV1 = human TRPV1 (Homo sapiens, UniProt Q8NER1); assay: Responses in CHO cells expressing TRPV1; format: cell-based; conditions: data not shown
mouse TRPA1 [5] = biological target: T1, mouse TRPA1; assay: [Ca2+]i increase in TRPA1-expressing CHO cells; format: cell-based; conditions: for TRPA1 activation: Rose Bengal at 5 μM, supplemental Fig. 2; for [Ca2+]i-increase in TRPA1 CHO cells: at concentrations <50 μM, data not shown
rat nodose neurons = assay: Calcium imaging of rat nodose ganglion neurons; format: cell-based; conditions: for percentage of rat nodose neurons responding with [Ca2+]i increase: positive = at least 15% of response to 50 mM KCl, H2O2 5 mM, AITC 50 μM
rat DRG neurons [6] = conditions: ref Andersson et al., 2007; cited from earlier work
[7] = system: DRG neurons from wild-type mice; assay: Calcium imaging of DRG neurons from wild-type mice; format: cell-based, mouse; conditions: wild-type mice (134 of 445)
DRG neurons = assay: Whole-cell voltage clamp of DRG neurons; format: cell-based, rat; conditions: voltage ramp
[8] = system: DRG neurons from trpv1-/- mice; assay: Calcium imaging of DRG neurons from trpv1-/- mice; format: cell-based, mouse; conditions: trpv1-/- mice (113 of 355)

T1 sequence (Q8BLA8 whole entry): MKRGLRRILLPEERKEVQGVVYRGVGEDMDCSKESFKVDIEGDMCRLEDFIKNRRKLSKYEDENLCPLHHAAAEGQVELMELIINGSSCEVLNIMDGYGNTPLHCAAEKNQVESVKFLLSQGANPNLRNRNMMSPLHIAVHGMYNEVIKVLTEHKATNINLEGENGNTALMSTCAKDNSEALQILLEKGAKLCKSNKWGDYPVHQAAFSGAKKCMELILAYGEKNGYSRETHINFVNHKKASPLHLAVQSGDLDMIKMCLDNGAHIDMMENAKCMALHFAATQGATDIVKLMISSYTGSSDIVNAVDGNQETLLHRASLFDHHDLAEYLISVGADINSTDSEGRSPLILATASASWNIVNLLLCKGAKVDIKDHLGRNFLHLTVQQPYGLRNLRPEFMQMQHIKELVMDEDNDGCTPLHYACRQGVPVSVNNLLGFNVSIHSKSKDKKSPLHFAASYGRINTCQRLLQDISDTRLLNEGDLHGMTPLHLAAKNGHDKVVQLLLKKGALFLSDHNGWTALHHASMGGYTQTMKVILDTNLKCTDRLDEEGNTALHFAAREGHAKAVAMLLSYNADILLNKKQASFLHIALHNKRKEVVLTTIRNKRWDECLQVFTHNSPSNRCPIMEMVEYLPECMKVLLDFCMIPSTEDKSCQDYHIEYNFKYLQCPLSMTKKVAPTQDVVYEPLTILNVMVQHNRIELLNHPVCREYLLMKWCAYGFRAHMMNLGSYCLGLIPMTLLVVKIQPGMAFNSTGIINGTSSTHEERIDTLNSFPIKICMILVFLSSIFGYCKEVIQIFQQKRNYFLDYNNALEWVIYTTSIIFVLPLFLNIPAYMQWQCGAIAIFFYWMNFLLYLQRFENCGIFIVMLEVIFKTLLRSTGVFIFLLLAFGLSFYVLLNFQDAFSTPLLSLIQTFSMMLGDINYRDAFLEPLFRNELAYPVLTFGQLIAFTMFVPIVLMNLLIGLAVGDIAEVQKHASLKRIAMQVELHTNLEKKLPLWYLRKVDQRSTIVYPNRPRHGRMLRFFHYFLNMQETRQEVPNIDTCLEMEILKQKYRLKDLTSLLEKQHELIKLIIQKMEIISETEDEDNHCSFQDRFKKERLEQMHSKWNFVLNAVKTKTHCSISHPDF
Sequence of human TRPV1 (Q8NER1 whole entry): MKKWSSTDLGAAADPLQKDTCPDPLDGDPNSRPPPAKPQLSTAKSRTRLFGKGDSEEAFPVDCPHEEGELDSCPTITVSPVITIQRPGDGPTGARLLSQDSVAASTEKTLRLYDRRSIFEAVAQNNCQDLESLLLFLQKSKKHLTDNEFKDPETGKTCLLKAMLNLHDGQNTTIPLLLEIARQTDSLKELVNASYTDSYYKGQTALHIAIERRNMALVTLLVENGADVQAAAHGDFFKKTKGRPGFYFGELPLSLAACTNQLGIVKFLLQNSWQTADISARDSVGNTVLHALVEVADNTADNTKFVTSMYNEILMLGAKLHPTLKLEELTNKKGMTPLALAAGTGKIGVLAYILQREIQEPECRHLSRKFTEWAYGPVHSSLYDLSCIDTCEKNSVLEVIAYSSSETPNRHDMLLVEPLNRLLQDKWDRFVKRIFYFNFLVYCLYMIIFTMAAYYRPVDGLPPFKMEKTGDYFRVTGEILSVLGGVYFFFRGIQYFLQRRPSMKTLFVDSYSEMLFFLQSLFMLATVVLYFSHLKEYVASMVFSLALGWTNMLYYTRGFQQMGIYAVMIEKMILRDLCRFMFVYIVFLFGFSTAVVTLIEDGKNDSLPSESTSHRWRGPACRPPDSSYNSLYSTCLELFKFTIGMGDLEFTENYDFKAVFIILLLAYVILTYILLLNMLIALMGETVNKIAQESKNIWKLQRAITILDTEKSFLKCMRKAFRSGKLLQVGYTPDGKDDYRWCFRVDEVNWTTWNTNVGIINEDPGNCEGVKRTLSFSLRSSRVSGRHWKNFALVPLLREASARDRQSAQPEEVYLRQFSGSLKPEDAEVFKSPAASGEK

Which results are given for `CCCCCC(O)/C=C/C=O` (stereo not shown) [4-HNE, 4-hydroxynonenal]?
Response amplitude (% of K+) [1]: 34%; membrane current in TRPA1 CHO cells (mouse TRPA1 [2]): evoked membrane currents; Response amplitude (% of K+) [3]: 61%; capsaicin-sensitive DRG neurons that responded (rat DRG neurons [4]): Approximately 50%

What does the source list for `CCCCCC=CC=C1C(=O)C=C[C@@H]1CC=CCCCC(=O)O` [15d-PGJ2, 15-deoxy-Δ^12,14-prostaglandin J2]?
Response amplitude (% of K+) [1]: 47%; membrane current in TRPA1 CHO cells (mouse TRPA1 [2]): evoked inward currents; Response amplitude (% of K+) [3]: 63%; nocifensive/pain-related behaviour (wild-type mice): marked nocifensive behaviors; [Ca2+]i increase / membrane currents in untransfected CHO cells (untransfected CHO cells): had no effect; nocifensive/pain-related behaviour (trpa1-/- mice): greatly reduced or absent; [Ca2+]i increase / membrane currents in TRPV1 expressing CHO cells (human TRPV1): had no effect

With `O=C([O-])c1c(Cl)c(Cl)c(Cl)c(Cl)c1-c1c2cc(I)c(=O)c(I)c-2oc2c(I)c([O-])c(I)cc12.[Na+].[Na+]` [Rose Bengal] as the molecule, how does the TRPA1 activation (mouse TRPA1 [5]) read?
The TRPA1 activation was “activated”.

For `CCCCCC(=O)C=CC=O` [4-ONE, 4-oxo-2-nonenal], which “Response amplitude (% of K+)” value [1] is on record?
Its value is 34%.

And the “Response amplitude (% of K+)” value [3]?
The value was 89%.

And the “capsaicin-sensitive DRG neurons that responded” value (rat DRG neurons [4])?
The value was “Approximately 50%”.

What about the EC50 (mouse TRPA1 [5]) of the same molecule?
Its EC50 is 1.9 µM.

Which results are given for `C=CCN=C=S` [AITC, allyl isothiocyanate]?
Response amplitude (% of K+) [1]: 21%; Response amplitude (% of K+) [3]: 86%; percentage of rat nodose neurons responding with [Ca2+]i increase (rat nodose neurons): 54.0%

Which “[Ca2+]i-increase in TRPA1 CHO cells” value (mouse TRPA1 [5]) does the source give for `CCCCC/C=C\C=C1\C(=O)CC[C@@H]1C/C=C\CCCC(=O)O` [9,10-dihydro-15d-PGJ2] here?
Its value is “failed to elicit any significant [Ca^2+]i-increase”.

For `CC1CCC(C(C)C)C(O)C1` (stereo not shown) [menthol], which “percentage of sensitive DRG neurons in DRG cultures” value (rat DRG neurons [6]) is on record?
Its value is ~ 8%.

With `OO` [H2O2, hydrogen peroxide] as the molecule, how does the “Response amplitude (% of K+)” value [1] read?
The value was 31%.

And the “reversal potential of evoked current” value (mouse TRPA1 [2]; TRPA1 CHO cells, voltage ramp, calcium-free solution)?
The value was roughly 0 mV.

And the single-channel chord conductance (mouse TRPA1 [2]; cell-attached patches, -100 to +100 mV)?
Its single-channel chord conductance is 94 ± 3 pS.

What about the “membrane current in TRPA1 CHO cells” value (mouse TRPA1 [2]) of the same molecule?
The value was “evoked an inward current”.

What about the “proportion of sensitive DRG neurons” value [7] of the same molecule?
Its value is 30.1%.

What about the “Response amplitude (% of K+)” value [3] of the same molecule?
The value was 70%.

And the nocifensive/pain-related behaviour (wild-type mice)?
Its nocifensive/pain-related behaviour is “marked nocifensive behaviors”.

What about the “percentage of rat nodose neurons responding with [Ca2+]i increase” value (rat nodose neurons) of the same molecule?
Its value is 49.8%.

What about the “capsaicin-sensitive nodose neurons that did not respond” value (rat nodose neurons; rat nodose neurons, calcium imaging) of the same molecule?
The value was ~ 30%.

And the “capsaicin-sensitive DRG neurons that did not respond” value (rat DRG neurons [4]; rat DRG neurons, calcium imaging)?
Its value is ~ 50%.

What about the “currents in untransfected CHO cells” value (untransfected CHO cells; concentrations up to 100 mM) of the same molecule?
Its value is “failed to evoke currents”.

What about the “reversal of [Ca2+]i response by dithiothreitol (DTT)” value (mouse TRPA1 [5]; DTT 1 mM) of the same molecule?
The value was “reversed”.

What about the “EC50 lower / potency increased in Fe2+-loaded vs untreated cells” value (mouse TRPA1 [5]; TRPA1 CHO cells, after 90 s) of the same molecule?
Its value is ~ 20 fold and 20 fold.

And the “concentrations that activate TRPA1” value (mouse TRPA1 [5]; extracellularly applied)?
Its value is 50 to 100 µM.

And the EC50 (mouse TRPA1 [5]; read-out: EC50, increase in [Ca2+]i in Fe2+-loaded cells, TRPA1 CHO cells preloaded with 100 μM FeSO4 for 1 h, after 90 s)?
Its EC50 is 53 ± 6 µM.

And the EC50 (mouse TRPA1 [5]; read-out: EC50, increase in [Ca2+]i, TRPA1 CHO cells, after 90 s exposure)?
The EC50 was 1200 ± 400 µM.

What about the EC50 (mouse TRPA1 [5]; read-out: EC50, increase in [Ca2+]i, TRPA1 CHO cells, after 600 s exposure (plateau)) of the same molecule?
Its EC50 is 230 µM.

What about the nocifensive/pain-related behaviour (trpa1-/- mice) of the same molecule?
Its nocifensive/pain-related behaviour is “greatly reduced or absent”.

And the “reversal potential of evoked current” value (DRG neurons)?
Its value is -6 mV.

And the “proportion of sensitive DRG neurons” value [8]?
The value was 31.8%.

For `CCCCC[C@H](O)/C=C/[C@H]1C=CC(=O)[C@@H]1C/C=C\CCCC(=O)O` [PGA2], which “[Ca2+]i-increase in TRPA1 CHO cells” value (mouse TRPA1 [5]) is on record?
Its value is “failed to elicit any significant [Ca^2+]i-increase”.

For `Cc1ccc(S(=O)(=O)NCl)cc1` [chloramine T], which TRPA1 activation (mouse TRPA1 [5]) is on record?
The TRPA1 activation was “activated”.
